According to US20020155562A1, “Glutathionylspermidine synthetase and processes for recovery and use thereof” (Leopold Flohe, priority 1996, published 2002):

Assays:
[1] = biological target: glutathionylspermidine synthetase (GspS); test: Kinetic analysis of GspS by HPLC determination of the product Gsp; type: biochemical, C. fasciculata; conditions: 25.0° C.; for Ki: pH 7.5; for Km: substrates of GspS, rapid equilibrium random-order mechanism, pH 7.5, 5 mM magnesium, read-out: limiting Km (dissociation constant of the quarternary complex)
Method: Production of starting material: C. fasciculata was grown in a medium previously described (27) in a 100-1 fermenter at 27° C. with continuous stirring (200 rpm) and aeration (0.1 vvm). Organisms were harvested in the late logarithmic growth phase by continous flow centrifugation. The pellet was resuspended with 100 mM HEPES buffer (pH 7.5) containing 1 mM DTT and 1 mM MgSO4. After centrifugation the cells were stored at −20° C. GspS, Assay: The assays were carried out at 25.0° C. in a volume of 0.9 ml containing 50 mM Bis-Tris-propane, 50 mM Tris, pH 7.5, 5 mM MgSO4, 1 mM EDTA, 5 mM DTT, 5 mM ATP, 10 mM GSH, and 10 mM spermidine (1). The assay for TS was carried out as described by Smith et al. (1). Aliquots were taken after 20 min. For thiol analysis a precolumn derivatization with the fluorescent thiol-specific reagent, monobromobimane (Calbiochem), was used as described previously (2). All samples for HPLC analysis were diluted four-fold with water. Separation and analytical conditions were as described previously (28). HPLC-analysis was performed with a Jasco-HPLC-system consisting of an autosampler (851-AS), a pump (PU-980), a ternary gradient unit (LG-980-02), and a highly sensitive fluorescence detector (FP-920), which enabled a precise analysis of the small product peak in the presence of numerous other and larger ones. An external standard (0.04 mM Gsp) was used for integration calibration of the samples.
All kinetic experiments were carried out at 25.0° C. in a volume of 0.9 ml containing 50 mM Bis-Tris-propane, 50 mM Tris, pH 7.5, 1 mM EDTA, 5 mM DTT and variable concentrations of ATP (0.10, 0.13, 0.18, 0.28, 0.66 mM ATP), GSH (0.36, 0.47, 0.66, 1.11, 3.57 mM GSH), and spermidine (0.36, 0.47, 0.66, 1.11, 3.57 mM spermidine), respectively. The enzymatic tests for kinetic studies except the ADP inhibition studies were performed in the presence of phosphoenolpyruvate (10 mM) and pyruvate kinase (0.5 units). A fixed magnesium concentration of 5 mM and a GspS content of 0.072 mg (0.923 μM) was used. Aliquots were taken at 15 min and 30 min. GspS activity was analyzed by product determination as described in example 1.

[2] = system: glutathionylspermidine synthetase (GspS); test: Malachite green colorimetric assay for liberation of inorganic phosphate; type: biochemical, C. fasciculata; conditions: ADP 0-10 mM at ATP 0.2-5 mM; competitive with respect to ATP
Method: FIG. 9. Malachite green colorimetric assay for liberation of inorganic phosphate. The malachite green calorimetric assay for liberation of inorganic phosphate (1) was used for fast detection of GspS activity.
The standard assay was carried out at 25.0° C. in a volume of 0.15 ml containing 50 mM Bis-Tris-propane, 50 mM Tris, pH 7.5, 5 mM MgSO4, 1 mM EDTA, 5 mM DTT, 5 mM ATP, 10 mM GSH, 10 mM spermidine, and GspS. After an incubation of 10 min the malachite green reagent was added for detection of GspS activity.
Concentration of ATP (see heading) and ADP (see table).
The liberation of inorganic phosphate from ATP can be easily visualized by malachite green (FIG. 9). The test is amply used to monitor ATP hydrolyzing activities and is correspondingly unspecific. […] This finding enabled us to use this fast and convenient test to measure specifically GspS activity which is accompanied by release of inorganic phosphate from ATP in the presence of glutathione, spermidine, and magnesium ions. The test can be easily adapted to mass screening as outlined below.

Compound | Km [1] | further results
Nc1ncnc2c1ncn2[C@@H]1O[C@H](COP(=O)(O)OP(=O)(O)O)[C@@H](O)[C@H]1O [ADP] | – | Ki ([1]; inhibition of GspS, competitive with respect to ATP, no ATP regenerating system): 80 µM; inhibition of GspS [2]: significantly inhibits
N[C@@H](CCC(=O)N[C@@H](CS)C(=O)NCC(=O)O)C(=O)O [GSH, glutathione] | 2510 ± 330 µM | –
N[C@@H](CCC(=O)N[C@@H](CS)C(=O)NCC(=O)NCCCCNCCCNC(=O)CNC(=O)[C@H](CS)NC(=O)CC[C@H](N)C(=O)O)C(=O)O [TSH, N^1, N^8-bis(glutathionyl)spermidine] | – | Ki ([1]; feed-back inhibition of GspS, competed by GSH): 480 µM
NCCCCNCCCN [spermidine] | 470 ± 90 µM | –
adenosyltriphosphate [Mg^2+-ATP] | 250 ± 20 µM | –
